Source: patent US20250188083A1, “Modulators of Histone Acetyltransferase 1 and Methods of Treatment Thereof” (The Board of Trustees of the Leland Stanford Junior …, priority 2021, published 2025)
pEC50, pIC50, pKi: −log10 of the molar value. Several values for one entry are separate records, joined by “and”; a condition that tells them apart may be missing. Equal entries are not always repeated. Values belong to the molecule of their own block, whether it stands above or below them.

Tests used:
[1] = target: HAT1/Rbap46 enzyme complex (Homo sapiens, UniProt O14929); assay: HAT1 acetylation (acetyl-click) assay with 4-pentynoyl-CoA; assay type: biochemical; conditions: for pIC50: dose-response, 4-pentynoyl-CoA co-factor, read-out: IC50 for HAT1 enzymatic inhibition; for HAT1 inhibitory activity in library screens (rank, active or inactive): single-dose screening; for inhibition of HAT1/Rbap46 by bi-substrate inhibitors: 10 μM; for HAT1 inhibitory activity of flavonoids in dose-response: dose-response curves, FIG. 13
Sequence of HAT1/Rbap46 enzyme complex (Q16576 whole entry partner, one chain of several): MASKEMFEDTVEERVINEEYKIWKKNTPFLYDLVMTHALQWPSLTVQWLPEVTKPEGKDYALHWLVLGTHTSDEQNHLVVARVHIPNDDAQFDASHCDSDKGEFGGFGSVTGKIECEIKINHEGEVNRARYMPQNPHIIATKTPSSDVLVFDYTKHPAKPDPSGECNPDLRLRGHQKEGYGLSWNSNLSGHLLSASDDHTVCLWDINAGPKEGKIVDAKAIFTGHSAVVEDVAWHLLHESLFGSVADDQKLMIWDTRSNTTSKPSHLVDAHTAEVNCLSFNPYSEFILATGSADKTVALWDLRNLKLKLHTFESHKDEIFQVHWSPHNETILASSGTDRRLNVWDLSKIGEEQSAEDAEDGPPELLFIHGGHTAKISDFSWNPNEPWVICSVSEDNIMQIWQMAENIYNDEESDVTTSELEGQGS
Method: FIG. 6 provides a schematic of a histone acetyltransferase 1 (HAT1) acetylation assay in accordance with various embodiments. HAT1/Rbap46 purified enzyme complex is incubated with 4-pentynoyl-CoA and histone H4 N-terminal biotinylated peptide in the presence or absence of test compounds. Then reaction products are bound to neutravidin 96-well plate, washed, functionalized by copper(I)-catalyzed cycloaddition click chemistry with biotin-azide. Then, streptavidin-HRP is bound and detected by amplex red fluorescence reaction.
Percent inhibition was calculated according the following formula: […]

[2] = test system: HCC1806 cell line; assay: Cell growth inhibition (CellTiter-Blue / resazurin); assay type: cell-based, human
Method: (§1) hTert-HME1, HCC1806, HCC1937, A549 were maintained in a humified incubator at 37deg C. with 5% CO2. HCC1806 and HCC1937 were grown in RPMI with 10% FBS and 1% penicillin-streptomycin. A549 was grown in F-12 media with 10% FBS and 1% penicillin-streptomycin. hTert-HME1 was grown in Mammary Epithelial Growth Media (PromoCell). Drug treatments were performed in 96-well plates. Cells were seeded at 5000 cells per well, then allowed to attach overnight. Drug dilutions were made in 96-well plates then transferred to plate containing cells and incubated for 48-72 hours. Cell density was then determined by CellTiter-Blue (Promega). For capillary immunoassays hTert-HME1 5E5 cells were seeded in 10 cm plates and cultured for 48 hours, then cells were washed 2× in PBS and EGF-free MEGM was added overnight. The next day, cells were treated in EGF-free media with 1% dialyzed BSA+drug for 30 minutes, then EGF was added to the plate and cells were cultured for 8, 10 and 12 hours before harvesting. Microcapillary immunoassays were performed on a SimpleWestern Wes instrument using H4K12-Ac antibody (Abcam ab46983) at 1:25 dilution, H4K5-Ac antibody (Millipore 07-327) at 1:50 dilution, HAT1 (Abcam ab194296) at 1:50 dilution, nascent H4 (Abcam ab7311) at 1:10 dilution, nascent H3 (Abcam ab18521) at 1:50 dilution, actin (Thermo-Fisher MA5-15452) at 1:100 dilution.

[3] = target: T1, bacterially-expressed recombinant HAT1 (Homo sapiens, UniProt O14929); conditions: Ngo, Brown, Zheng 2019; read-out: Ki towards recombinant HAT1; cited from earlier work
T1 sequence (O14929 1-419): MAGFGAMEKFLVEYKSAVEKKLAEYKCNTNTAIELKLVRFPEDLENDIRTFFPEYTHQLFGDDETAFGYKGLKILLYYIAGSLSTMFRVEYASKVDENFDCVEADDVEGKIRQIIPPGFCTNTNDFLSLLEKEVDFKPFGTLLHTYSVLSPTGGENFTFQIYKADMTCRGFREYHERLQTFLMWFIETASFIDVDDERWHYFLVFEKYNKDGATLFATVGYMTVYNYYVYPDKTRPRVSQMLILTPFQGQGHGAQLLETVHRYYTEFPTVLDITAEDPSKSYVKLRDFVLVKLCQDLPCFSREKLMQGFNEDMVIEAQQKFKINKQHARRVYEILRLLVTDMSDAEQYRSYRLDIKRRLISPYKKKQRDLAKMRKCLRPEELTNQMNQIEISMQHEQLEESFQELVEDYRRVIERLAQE

[4] = test system: A549 tumors; assay: A549 tumor growth in NSG mice
Method: P-value calculated by least squares regression and extra sum-of-squares F-test. N=5 mice per group.
A549 cells were infected with 3 lentiviral shRNAs targeting the human HAT1 mRNA (Origene #TL312517). Six-to-eight-week-old NSG female mice (Jackson Labs #005557) were shaved, then 500,000 A549 tumor cells were injected into bilateral flanks and tumor growth was assessed by tri-dimensional tumor measurements to yield tumor volumes. For drug treatments, analog 2016 was resuspended in a 1:1 mixture of PEG-400 and PBS+1% dialyzed BSA-0.2 μm-filtered (MilliporeSigma #12-660-910GM). Intraperitoneal injections (200 μL) were performed with a 21-G needle. Tumor measurements were performed with digital calipers.

[5] = test system: H4 lysine 5 and 12 acetylation; assay: Capillary immunoassay of H4 acetylation in hTert-HME1 cells; assay type: cell-based, human
Method: At some timepoints, decreased H4 protein levels were also observed, consistent with prior studies of the effects of HAT1 depletion (J. J. Gruber, et al., Mol Cell 75:711-724 e5, 2019, cited supra).
as §1, with “Microcapillary immunoassays were performed on a SimpleWestern Wes instrument using H4K12-Ac antibody (Abcam ab46983) at 1:25 dilution, H4K5-Ac antibody (Millipore 07-327) at 1:50 dilution, HAT1 (Abcam ab194296) at 1:50 dilution, nascent H4 (Abcam ab7311) at 1:10 dilution, nascent H3 (Abcam ab18521) at 1:50 dilution, actin (Thermo-Fisher MA5-15452) at 1:100 dilution.” left out

[6] = target: T2, GCN5 (Homo sapiens, UniProt Q92830); assay: Other acetyltransferase assay (3H-Acetyl-CoA, Creative Biomart); assay type: biochemical; conditions: 10-point dose curve from 100 μM
T2 construct: Creative Biomart (assay service)
Method: (§2) Acetylation assays on 7 targets (CBP, GCN5, KAT5, MYST2/KAT7, MYST4/KAT6b, p300, pCAF) was performed by Creative Biomart. […] Reaction buffer was 50 mM Tris-HCL, 0.1 mM EDTA, 250 mM NaCl, 1 mM DTT, 1% DMSO, pH 8.0, using 3 μM 3H-Acetyl-CoA, reaction time of 1 hour at 30 degrees Celsius, with substrate conversion rate between 5-20%. Enzymes were diluted in reaction buffer, followed by addition of compound with Acoustic Technology in nanoliter range, incubated at room temperature for 20 minutes, then 3H-Acetyl-CoA was added. Reaction was incubated at 30 minutes at 30 degrees Celsius, then transferred to filter paper for detection.

[7] = target: T3, KAT5 (Homo sapiens, UniProt Q92993); assay: as above; assay type: biochemical; conditions: 10-point dose curve from 100 μM
T3 construct: Creative Biomart (assay service)
Method: as §2

[8] = target: T4, PCAF (Homo sapiens, UniProt Q92831); assay: as above; assay type: biochemical; conditions: 10-point dose curve from 100 μM
T4 construct: Creative Biomart (assay service)
Method: as §2

[9] = target: T5, MYST2/KAT7 (Homo sapiens, UniProt O95251); assay: as above; assay type: biochemical; conditions: 10-point dose curve from 100 μM
T5 construct: Creative Biomart (assay service)
Method: as §2

[10] = target: T6, MYST4/KAT6b (Homo sapiens, UniProt Q8WYB5); assay: as above; assay type: biochemical; conditions: 10-point dose curve from 100 μM
T6 construct: Creative Biomart (assay service)
T6 sequence (Q8WYB5 whole entry): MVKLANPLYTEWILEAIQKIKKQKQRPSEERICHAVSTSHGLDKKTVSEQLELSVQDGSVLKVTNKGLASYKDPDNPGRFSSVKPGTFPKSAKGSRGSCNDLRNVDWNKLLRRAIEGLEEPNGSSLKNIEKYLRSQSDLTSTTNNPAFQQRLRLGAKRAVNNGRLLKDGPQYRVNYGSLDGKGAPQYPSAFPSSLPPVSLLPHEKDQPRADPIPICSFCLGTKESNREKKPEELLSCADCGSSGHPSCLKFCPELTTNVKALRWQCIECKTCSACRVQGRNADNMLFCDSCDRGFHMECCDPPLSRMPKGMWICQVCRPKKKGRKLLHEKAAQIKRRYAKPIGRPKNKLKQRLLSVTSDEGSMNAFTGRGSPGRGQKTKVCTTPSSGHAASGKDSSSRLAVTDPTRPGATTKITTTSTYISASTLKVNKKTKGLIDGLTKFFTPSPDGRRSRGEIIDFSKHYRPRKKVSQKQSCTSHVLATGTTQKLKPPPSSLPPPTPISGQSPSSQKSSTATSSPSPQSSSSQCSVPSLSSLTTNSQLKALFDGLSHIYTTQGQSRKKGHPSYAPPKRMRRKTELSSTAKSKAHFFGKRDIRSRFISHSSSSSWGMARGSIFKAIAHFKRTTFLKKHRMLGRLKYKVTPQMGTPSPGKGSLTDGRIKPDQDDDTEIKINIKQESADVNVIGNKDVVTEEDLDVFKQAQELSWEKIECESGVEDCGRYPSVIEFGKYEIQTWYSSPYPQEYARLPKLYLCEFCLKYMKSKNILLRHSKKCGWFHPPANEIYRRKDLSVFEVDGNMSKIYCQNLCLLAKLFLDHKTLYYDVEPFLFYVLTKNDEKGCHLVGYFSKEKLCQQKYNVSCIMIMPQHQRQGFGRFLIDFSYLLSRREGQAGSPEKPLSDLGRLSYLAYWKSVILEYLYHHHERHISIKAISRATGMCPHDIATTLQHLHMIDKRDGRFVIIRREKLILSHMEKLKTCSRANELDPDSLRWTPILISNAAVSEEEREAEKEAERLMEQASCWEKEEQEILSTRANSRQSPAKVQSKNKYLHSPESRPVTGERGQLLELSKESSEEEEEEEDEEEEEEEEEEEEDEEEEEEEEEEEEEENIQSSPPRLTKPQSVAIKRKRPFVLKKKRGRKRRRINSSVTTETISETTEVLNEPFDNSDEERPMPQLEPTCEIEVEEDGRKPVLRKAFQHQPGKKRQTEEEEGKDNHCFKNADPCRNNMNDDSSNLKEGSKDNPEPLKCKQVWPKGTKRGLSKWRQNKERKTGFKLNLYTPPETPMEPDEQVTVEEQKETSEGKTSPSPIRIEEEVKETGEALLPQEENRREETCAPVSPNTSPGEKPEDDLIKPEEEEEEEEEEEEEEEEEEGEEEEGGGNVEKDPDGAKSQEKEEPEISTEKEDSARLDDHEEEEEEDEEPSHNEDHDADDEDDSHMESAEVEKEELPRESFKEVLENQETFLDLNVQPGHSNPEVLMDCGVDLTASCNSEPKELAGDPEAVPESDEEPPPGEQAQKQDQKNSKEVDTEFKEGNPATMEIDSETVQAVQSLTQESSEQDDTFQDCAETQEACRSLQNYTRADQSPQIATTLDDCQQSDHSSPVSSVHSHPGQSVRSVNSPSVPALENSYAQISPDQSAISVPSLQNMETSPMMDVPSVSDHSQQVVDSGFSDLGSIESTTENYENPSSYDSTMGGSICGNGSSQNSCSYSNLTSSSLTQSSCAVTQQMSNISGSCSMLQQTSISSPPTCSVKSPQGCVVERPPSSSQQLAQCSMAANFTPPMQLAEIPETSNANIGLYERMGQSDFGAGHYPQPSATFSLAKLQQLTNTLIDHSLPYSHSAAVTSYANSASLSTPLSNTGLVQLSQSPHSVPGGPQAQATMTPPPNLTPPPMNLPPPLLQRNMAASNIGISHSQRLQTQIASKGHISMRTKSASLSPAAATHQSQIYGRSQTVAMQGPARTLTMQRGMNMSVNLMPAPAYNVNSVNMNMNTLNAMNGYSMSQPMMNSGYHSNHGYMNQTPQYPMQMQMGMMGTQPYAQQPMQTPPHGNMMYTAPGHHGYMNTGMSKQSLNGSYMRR
Method: as §2

[11] = target: T7, CBP (Homo sapiens, UniProt Q92793); assay: as above; assay type: biochemical; conditions: 10-point dose curve from 100 μM
T7 construct: Creative Biomart (assay service)
T7 sequence (Q92793 whole entry): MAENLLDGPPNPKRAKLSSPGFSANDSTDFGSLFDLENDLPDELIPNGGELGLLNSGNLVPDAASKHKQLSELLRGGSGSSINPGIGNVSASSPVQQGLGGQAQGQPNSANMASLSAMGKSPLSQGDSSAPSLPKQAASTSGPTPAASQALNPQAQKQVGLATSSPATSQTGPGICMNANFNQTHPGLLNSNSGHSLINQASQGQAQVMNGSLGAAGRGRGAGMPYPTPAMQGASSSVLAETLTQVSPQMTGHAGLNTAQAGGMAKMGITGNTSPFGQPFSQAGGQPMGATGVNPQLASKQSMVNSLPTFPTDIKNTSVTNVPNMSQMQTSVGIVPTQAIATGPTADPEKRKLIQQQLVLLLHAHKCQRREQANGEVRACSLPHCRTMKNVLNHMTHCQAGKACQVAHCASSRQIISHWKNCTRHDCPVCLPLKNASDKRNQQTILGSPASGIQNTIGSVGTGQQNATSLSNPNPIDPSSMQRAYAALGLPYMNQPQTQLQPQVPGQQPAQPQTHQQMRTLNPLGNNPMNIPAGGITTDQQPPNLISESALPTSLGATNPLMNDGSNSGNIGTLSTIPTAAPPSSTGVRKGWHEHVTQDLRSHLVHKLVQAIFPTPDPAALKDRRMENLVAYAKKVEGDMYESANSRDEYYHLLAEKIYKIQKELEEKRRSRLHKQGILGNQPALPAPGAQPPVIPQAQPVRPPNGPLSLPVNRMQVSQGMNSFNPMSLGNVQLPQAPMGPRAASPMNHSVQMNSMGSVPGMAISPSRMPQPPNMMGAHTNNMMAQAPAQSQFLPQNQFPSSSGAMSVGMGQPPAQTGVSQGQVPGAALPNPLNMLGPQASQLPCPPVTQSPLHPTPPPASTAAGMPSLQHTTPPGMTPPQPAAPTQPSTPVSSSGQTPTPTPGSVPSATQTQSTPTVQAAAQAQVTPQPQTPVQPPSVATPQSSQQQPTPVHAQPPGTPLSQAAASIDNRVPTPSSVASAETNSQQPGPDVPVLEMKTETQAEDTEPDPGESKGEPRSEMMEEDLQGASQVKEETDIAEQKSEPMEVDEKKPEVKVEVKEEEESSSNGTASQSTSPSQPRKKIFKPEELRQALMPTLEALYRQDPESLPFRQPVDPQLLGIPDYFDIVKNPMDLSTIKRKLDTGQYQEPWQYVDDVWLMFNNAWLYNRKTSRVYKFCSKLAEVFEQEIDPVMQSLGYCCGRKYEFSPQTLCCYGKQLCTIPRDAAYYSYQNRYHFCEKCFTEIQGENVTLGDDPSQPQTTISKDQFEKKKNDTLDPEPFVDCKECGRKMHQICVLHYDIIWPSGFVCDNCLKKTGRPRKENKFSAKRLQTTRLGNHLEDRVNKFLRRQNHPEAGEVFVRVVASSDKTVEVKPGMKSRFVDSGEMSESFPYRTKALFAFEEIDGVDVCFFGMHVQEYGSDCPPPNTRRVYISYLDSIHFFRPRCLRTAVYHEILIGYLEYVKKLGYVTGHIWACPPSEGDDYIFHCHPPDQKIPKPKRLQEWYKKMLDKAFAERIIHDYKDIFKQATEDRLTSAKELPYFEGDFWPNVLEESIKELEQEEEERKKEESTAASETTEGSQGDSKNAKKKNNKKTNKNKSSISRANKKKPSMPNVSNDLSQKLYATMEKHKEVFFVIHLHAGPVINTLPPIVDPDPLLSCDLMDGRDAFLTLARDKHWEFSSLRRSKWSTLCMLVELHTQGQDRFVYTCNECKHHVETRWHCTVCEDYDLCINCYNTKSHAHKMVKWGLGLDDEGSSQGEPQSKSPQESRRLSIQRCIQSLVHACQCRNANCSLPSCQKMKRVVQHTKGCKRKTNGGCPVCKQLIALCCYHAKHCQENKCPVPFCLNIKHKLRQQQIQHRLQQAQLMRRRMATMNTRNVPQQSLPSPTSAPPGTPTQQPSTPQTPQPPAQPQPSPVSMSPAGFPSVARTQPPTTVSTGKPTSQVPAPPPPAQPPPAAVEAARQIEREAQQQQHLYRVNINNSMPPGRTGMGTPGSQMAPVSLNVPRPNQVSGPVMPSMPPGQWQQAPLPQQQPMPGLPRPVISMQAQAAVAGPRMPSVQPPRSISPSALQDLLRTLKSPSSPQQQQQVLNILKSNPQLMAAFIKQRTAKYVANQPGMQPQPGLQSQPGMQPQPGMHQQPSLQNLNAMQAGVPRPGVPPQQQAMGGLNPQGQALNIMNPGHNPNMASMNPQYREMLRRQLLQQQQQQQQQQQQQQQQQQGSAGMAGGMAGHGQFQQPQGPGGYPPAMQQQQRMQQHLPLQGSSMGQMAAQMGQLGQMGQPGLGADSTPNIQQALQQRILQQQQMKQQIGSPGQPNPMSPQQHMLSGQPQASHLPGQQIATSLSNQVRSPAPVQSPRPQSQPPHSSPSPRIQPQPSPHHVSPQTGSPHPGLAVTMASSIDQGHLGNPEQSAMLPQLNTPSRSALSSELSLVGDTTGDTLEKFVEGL
Method: as §2

[12] = target: T8, p300 (Homo sapiens, UniProt Q09472); assay: as above; assay type: biochemical; conditions: 10-point dose curve from 100 μM
T8 construct: Creative Biomart (assay service)
Method: as §2

[13] = test system: HCC1937 cell line; assay: Cell growth inhibition (CellTiter-Blue / resazurin); assay type: cell-based; conditions: Homo sapiens
Method: as §1

[14] = test system: A549 cell line; assay: as above; assay type: cell-based; conditions: Homo sapiens
Method: as §1

[15] = mouse, in vivo, ip
[16] = Fluorescence imaging of harvested organs (compound distribution); assay type: in vivo, mice; conditions: 24 hours
Description: Organs were harvested and excited with UV light (230 nm) and imaged with a yellow-green filter.

Molecule: O=c1nc2n(C[C@H](O)[C@H](O)[C@H](O)CO)c3cc(Cl)c(Cl)cc3nc-2c(=O)[nH]1 [NSC-42186]
pIC50 [1]: 4.22 and 4.42
% inhibition of HAT1 activity ([1]; single dose 100 μM): 31%

Molecule: Cc1cc2nc3c(=O)[nH]c(=O)nc-3n(C[C@H](O)[C@H](O)[C@H](O)CO)c2cc1N(C)C [roseoflavin, reference compound]
cell growth inhibition [2]: strong cell growth inhibitory properties
HAT1 inhibitory activity in library screens (rank, active or inactive) [1]: inactive

Molecule: NC(=S)c1cn(C2OC(CO)C(O)C2O)c2ncnc(N)c12 (stereo not drawn) [NSC-105827]
HAT1 inhibitory activity in library screens (rank, active or inactive) [1]: inhibitory activity

Molecule: H4K12-CoA: co-enzyme A chemically ligated to the ζ-amine of lysine 12 in the histone H4 N-terminal 20-mer peptide
cell growth inhibition [2]: no inhibitory activity
inhibition of HAT1/Rbap46 by bi-substrate inhibitors [1]: robust inhibition
pIC50 [1]: ~6.00
pKi [3]: ~9.00

Molecule: Cc1cc2nc3c(=O)[nH]c(=O)nc-3n(C[C@H](O)[C@H](O)[C@H](O)COP(=O)(O)O)c2cc1C [FMN, flavin-mononucleotide]
HAT1 inhibitory activity of flavonoids in dose-response [1]: no detectable inhibitory activity

Molecule: CCCC(=O)OC[C@@H](OC(=O)CCC)[C@@H](OC(=O)CCC)[C@H](Cn1c2nc(=O)[nH]c(=O)c-2nc2cc(C)c(C)cc21)OC(=O)CCC [riboflavin tetrabutyrate]
pIC50 [1]: 4.77

Molecule: CC(C)(COP(=O)(O)OP(=O)(O)OC[C@H]1O[C@@H](n2cnc3c(N)ncnc32)[C@H](O)[C@@H]1OP(=O)(O)O)[C@@H](O)C(=O)NCCC(=O)NCCSC(=O)[C@@H](N)CCCCN [lysyl-CoA]
inhibition of HAT1/Rbap46 by bi-substrate inhibitors [1]: no inhibitory activity

Molecule: Cc1cc2nc3c(=O)[nH]c(=O)nc-3n(C[C@H](O)[C@H](O)[C@H](O)COP(=O)(O)OP(=O)(O)OC[C@H]3O[C@@H](n4cnc5c(N)ncnc54)[C@H](O)[C@@H]3O)c2cc1C [FAD, flavin-adenine-dinucleotide]
HAT1 inhibitory activity of flavonoids in dose-response [1]: no detectable inhibitory activity

Molecule: CCc1cc2c(cc1Cl)nc1c(=O)[nH]c(=O)nc-1n2CCOCC(C)C [JG-2016, 7-chloro-8-ethyl-10-(2-isobutoxyethyl)benzo[g]pteridine-2,4(3H, 10H)-dione]
cell growth inhibition [2]: among the most potent inhibitors of cell growth
pEC50 ([2]; Homo sapiens): 4.98
tumor growth versus vehicle ([4]; 50 mg/kg and 100 mg/kg i.p. once every three days from day 13): significantly impaired tumor growth
dose-response of tumor growth suppression ([4]; higher dose (100 mg/kg) compared to lower dose (50 mg/kg)): more profound suppression of tumor growth
time course of H4 acetylation inhibition ([5]; hTert-HME1, EGF stimulation 8, 10, 12 hours): on-target inhibition as early as 8 hours post-treatment that persisted through 12 hours
inhibition of H4 lysine 5 and 12 acetylation ([5]; hTert-HME1, dose series): dose-dependent inhibition
inhibitory activity towards GCN5 [6]: minimal or undetectable inhibitory activity
inhibitory activity towards KAT5 [7]: minimal or undetectable inhibitory activity
inhibitory activity towards PCAF [8]: minimal or undetectable inhibitory activity
pIC50 [9]: 4.07
inhibitory activity towards MYST4/KAT6b [10]: minimal or undetectable inhibitory activity
pIC50 [11]: 4.04
pIC50 [12]: 4.13
pEC50 [13]: 4.53
pEC50 [14]: 5.72
pIC50 ([14]; read-out: IC50 required to impair cell proliferation): 5.72
tolerated single intraperitoneal dose with minimal toxicity [15]: up to 250 mg/kg
toxicity signs ([15]; 500 mg/kg): signs of distress
tissue accumulation by fluorescence imaging ([16]; healthy mice, 500 mg/kg i.p.): high accumulation adipose tissue
tissue accumulation by fluorescence imaging ([16]; mice bearing bilateral A549 tumors, 100 mg/kg once): compound accumulation in subcutaneous adipose tissues (SAT), visceral adipose tissue (VAT), and tumors

Molecule: Cc1cc2nc3[nH]c(=O)[nH]c(=O)c3nc2cc1C [di-methyl-alloxazine]
HAT1 inhibitory activity of flavonoids in dose-response [1]: no detectable inhibitory activity

Continued, values first:

HAT1 inhibitory activity in library screens (rank, active or inactive) [1]: top hit
Molecule: CC(=O)OCCn1c2nc(=O)[nH]c(=O)c-2nc2cc(C)c(C)cc21 [NSC-3064]

HAT1 inhibitory activity in library screens (rank, active or inactive) [1]: inhibitory activity
Molecule: O=C(O)Cc1ccc(N=Nc2c(O)c(C(=O)O)cc3ccccc23)cc1 [NSC-156563]

HAT1 inhibitory activity in library screens (rank, active or inactive) [1]: interfered with enzyme inhibition
Molecule: CCc1cc2c(cc1Cl)nc1c(=O)[nH]c(=O)nc-1n2CCOCc1ccc(C#N)cc1 [JG-2092]

HAT1 inhibitory activity in library screens (rank, active or inactive) [1]: inhibitory activity
Molecule: Oc1ccccc1-c1nc2c3ccccc3c3ccccc3c2[nH]1 [NSC-332670]

HAT1 inhibitory activity in library screens (rank, active or inactive) [1]: interfered with enzyme inhibition
Molecule: CCc1cc2c(cc1Cl)nc1c(=O)[nH]c(=O)nc-1n2CCOCc1cccc(F)c1 [JG-2069]

HAT1 inhibitory activity in library screens (rank, active or inactive) [1]: interfered with enzyme inhibition
Molecule: CCc1cc2c(cc1Cl)nc1c(=O)[nH]c(=O)nc-1n2CCCOc1cccc(C#N)c1 [JG-2088]

HAT1 inhibitory activity in library screens (rank, active or inactive) [1]: inhibitory activity
Molecule: COC1=C(N)C(=O)c2nc(-c3nc(C(=O)O)c(C)c(-c4ccc(OC)c(OC)c4O)c3N)ccc2C1=O [NSC-83950]

HAT1 inhibitory activity in library screens (rank, active or inactive) [1]: fifth best hit
Molecule: Cc1cc2cc3c(=O)[nH]c(=O)cc-3n(CC(O)C(O)C(O)CO)c2cc1C (stereo not drawn) [NSC-275266]
